From paper PMC10304178, “Influence of Polyvinylpyrrolidone Molecular Weight and Concentration on the Precipitation Inhibition of Supersaturated Solutions of Poorly Soluble Drugs” (Pharmaceutics, 2023)

Columns and labels:
[1] = parameters: method as in PMID 29481859; conditions: absence of polymer; cited from earlier work
[2] = Supersaturation study by solvent-shift method (µDISS Profiler): induction time and slope of time–concentration profiles; type: physicochemical; conditions: for Influence of PVP concentration on tind and slope of the time–concentration profile / Influence of viscosity of the PVP solution on tind or slope of the time–concentration profile: multiple linear regression coefficient plot, 95% confidence interval
From the text: Time-concentration profiles of the drugs in a supersaturated solution in the absence and presence of PVP were obtained to study the influence of the polymer on the onset of the nucleation and precipitation rate of the drug from a supersaturated solution. Supersaturation of the drug was induced by the use of a method previously developed. Briefly, a […] ProfilerTM (Billerica, MA, USA) was used to obtain in situ UV spectra in the range from 200 to 720 nm. Probe tip lengths of 5, 10 or 20 mm were selected to obtain an absorbance in the range between 0.3 and 1. The vials were stirred using a crossbar magnet at ~100 rpm at a temperature of 37 °C. […] The UV wavelength range used to quantify the drug was 267-288 nm for albendazole, 304-360 nm for ketoconazole and 299-328 nm for tadalafil. […] Standard curves were prepared with six replicates by adding aliquots of 15 μL DMSO stock solution of the drug to the dissolution medium. The initial concentration of the drug was determined by using the highest concentration of the drug for which no instantaneous precipitation occurred. Precipitation was detected by a deviation from the linearity of the standard curve, a sharp shift in the baseline in the UV spectrum or through visual inspection of the solution. To induce supersaturation, 100 μL of a DMSO stock solution of the drug was transferred into glass vials containing 10 mL solutions of PVP K15, K30, K60 or […]. […] The drug concentration was monitored in situ by the second derivative of the UV absorbance. The second derivative was used to minimize UV interferences from the precipitate. The experiments were ended when the concentrations of the respective drugs reached their equilibrium solubility. The induction time of the time-concentration profiles was used as a surrogate for the onset of the nucleation of the respective drugs, and the slope of the time-concentration profiles was used as a surrogate for the precipitation rate of the respective drugs. The induction time (tind) and the slope of the time-concentration profile were determined using TA Instruments Trios software (New Castle, DE, USA). The induction time of the time-concentration profile in minutes was estimated using the onset time function via the tangent. The slope of the time-concentration profile in (μg/mL)/min was estimated using the slope function. Multiple linear regression analysis was conducted using Umetrics MODDE11 pro (Glostrup, Denmark) to delineate the influence of PVP molecular weight and concentration on the onset of nucleation and the precipitation rate of albendazole, tadalafil and ketoconazole. The tind and slope from the time-concentration profiles were used as the response values, whereas PVP concentration and the viscosity of the PVP solutions were used as the input predictors. It should be noted that the viscosity of the PVP solutions is used instead of the molecular weights of PVP, and therefore, the impact of the viscosity of solutions of PVP is the same as that of the molecular weight. The three levels for the concentration factor were 0.1, 0.5 and 1% (w/v), and the four levels for the viscosity factor were the viscosities of the solutions of PVP K15, K30, K60 and […]. […] The equilibrium solubility, viscosity of the PVP solutions, tind and slope of time-concentration profile during supersaturation of the drugs are given as the mean ± standard deviation (SD). […] Microsoft Excel (Redmond, WA, USA) was used for this analysis. The criteria for determining statistical significance in all tests were set at p < 0.05.

[3] = Equilibrium solubility of the drugs in PVP solutions (shake-flask solubility test); type: physicochemical
Procedure: An excess amount of the drug was added to 15 mL corning tubes containing either pure 0.1 M phosphate buffer (pH 7.4) or 0.1, 0.5 and 1% (w/v) solutions of PVP K15, K30, K60 or […], respectively. […] The saturated solution and the precipitate were separated by centrifugation for 10 min at 13,000 rpm in an Eppendorf Centrifuge 5810 R (Hamburg, Germany), followed by filtration intro ultra-performance liquid chromatography (UPLC) vials using a syringe filter (33 mm, 0.45 μm) PVDF membrane (2 mL filter sample prewet volume), acquired from Merck (Darmstadt, Germany). The tests were conducted in triplicate. The concentration of drug in the respective samples was quantified by reverse-phase chromatography using a Waters Acquity Classic UPLC system (Milford, MA, USA) equipped with an automated sample injector, a binary pump and a tunable UV detector. All samples were analyzed using a Waters Acquity UPLC BEH C18 column (130 Å, 1.7 μm, 2.1 × 50 mm) (Milford, MA, USA) at a column temperature of 50 °C for ketoconazole and tadalafil and 80 °C for albendazole. The samples were injected with a volume of s 6 μL and subsequently eluted at a flow rate of 0.8 mL/min. For albendazole and tadalafil, eluent A was a mixture of 90% (v/v) sodium sulfate (60 mM), di-ammonium hydrogen phosphate (5.5 mM) and phosphoric acid (34.5 mM) in Milli-Q water (pH 2.3) and 10% (v/v) acetonitrile. For ketoconazole, eluent A was a mixture of 90% (v/v) sodium sulfate (60 mM), di-ammonium hydrogen phosphate (5.5 mM) and phosphoric acid (34.5 mM) in Milli-Q water (pH 7.2) and 10% (v/v) acetonitrile. For tadalafil, albendazole and ketoconazole, eluent B was a mixture of 20% (v/v) Milli-Q water and 80% (v/v) acetonitrile. Albendazole was quantified in the samples using UV at a wavelength of 229 nm, while tadalafil was quantified at 284 nm and ketoconazole at 240 nm.

[4] = 1 mPa.s isoviscous solutions of PVP K15, K30, K60 and K120, increasing PVP molecular weight, p < 0.05
[5] = PVP K15, K30, K60 and K120, PVP concentration increased from 0.1 to 0.5% and again from 0.5 to 1% (w/v), ANOVA p < 0.05
[6] = PVP K15, K30, K60 and K120, concentration increased from 0.1 to 0.5% and again from 0.5 to 1% (w/v), p < 0.05
[7] = PVP K15, K30, K60 and K120 compared at the same concentration (0.1, 0.5, 1% w/v), p > 0.05
[8] = same concentrations (0.1, 0.5, 1% w/v) of PVP K15, K30, K60 and K120 (effect of molecular weight), p > 0.05
[9] = same concentration of repeating monomer units of PVP K15, K30, K60 and K120 (effect of molecular weight), p > 0.05
[10] = solution of 0.1% (w/v) PVP compared to the phosphate buffer pH 7.4, 37 °C, ANOVA
[11] = solutions of 0.5 and 1% (w/v) PVP, pH 7.4, 37 °C, ANOVA p < 0.05

Slope of the time–concentration profile (precipitation rate) [2, 4]	Influence of PVP concentration on tind and slope of the time–concentration profile [2]	Influence of viscosity of the PVP solution on tind or slope of the time–concentration profile [2]	Induction time (tind) [2, 8]	Equilibrium solubility [3, 9]	Slope of the time–concentration profile (precipitation rate) ([2]; 0.1% (w/v) PVP K15 compared with PVP K30, K60 and K120, p < 0.05)	Slope of the time–concentration profile (precipitation rate) ([2]; PVP K15, K30, K60 and K120, concentration increased from 0.1 to 0.5% (w/v), p < 0.05)	Induction time (tind) ([2]; PVP K15, concentration increased from 0.1 to 0.5% and again from 0.5 to 1% (w/v), p < 0.05)	Induction time (tind) ([2]; PVP K30, concentration increased from 0.1 to 0.5% (w/v), p > 0.05)	Induction time (tind) ([2]; PVP K30, concentration increased from 0.5 to 1% (w/v), p < 0.05)	Induction time (tind) ([2]; PVP K60 and K120, concentration increased from 0.1 to 0.5% and again from 0.5 to 1% (w/v), p > 0.05)	Equilibrium solubility ([3]; solutions of 0.1% and 0.5% (w/v) PVP compared to phosphate buffer, p < 0.05)	SMILES	Onset time of nucleation [1]	Induction time (tind) [2, 5]	Slope of the time–concentration profile (precipitation rate) [2, 6]	Slope of the time–concentration profile (precipitation rate) [2, 7]	Equilibrium solubility [3, 10]	Equilibrium solubility [3, 11]	Equilibrium solubility ([3]; increasing the concentration of PVP to 1% (w/v), p < 0.05)
–	–	–	–	–	–	–	–	–	–	–	–	NS(=O)(=O)c1cc2c(cc1Cl)N=C(CSCc1ccccc1)NS2(=O)=O [benzthiazide]	4 min	–	–	–	–	–	–
statistically significant difference	significant influence	no significant influence	no statistically significant differences	No statistically significant increase	–	–	–	–	–	–	–	CN1CC(=O)N2[C@H](c3ccc4c(c3)OCO4)c3[nH]c4ccccc4c3C[C@@H]2C1=O [tadalafil]	–	statistically significant increase	statistically significant difference	no statistically significant differences	no statistically significant increase	statistically significant increase	–
statistically significant difference	significant influence	no significant influence	no statistically significant differences	No statistically significant increase	statistically significant difference	statistically significant difference	statistically significant increase	no statistically significant increase	statistically significant increase	no statistically significant differences	statistically significant increase	CC(=O)N1CCN(c2ccc(OCC3COC(Cn4ccnc4)(c4ccc(Cl)cc4Cl)O3)cc2)CC1 (stereo not shown) [ketoconazole]	–	–	–	–	–	–	further statistically significant increase

SMILES	Slope of the time–concentration profile (precipitation rate) [2, 4]	Influence of PVP concentration on tind and slope of the time–concentration profile [2]	Influence of viscosity of the PVP solution on tind or slope of the time–concentration profile [2]	Induction time (tind) [2, 8]	Equilibrium solubility [3, 9]	Slope of the time–concentration profile (precipitation rate) ([2]; 0.1% (w/v) PVP K15 compared with PVP K30, K60 and K120, p < 0.05)	Slope of the time–concentration profile (precipitation rate) ([2]; PVP K15, K30, K60 and K120, concentration increased from 0.1 to 0.5% (w/v), p < 0.05)	Induction time (tind) ([2]; PVP K15, concentration increased from 0.1 to 0.5% and again from 0.5 to 1% (w/v), p < 0.05)	Induction time (tind) ([2]; PVP K30, concentration increased from 0.1 to 0.5% (w/v), p > 0.05)	Induction time (tind) ([2]; PVP K30, concentration increased from 0.5 to 1% (w/v), p < 0.05)	Induction time (tind) ([2]; PVP K60 and K120, concentration increased from 0.1 to 0.5% and again from 0.5 to 1% (w/v), p > 0.05)	Equilibrium solubility ([3]; solutions of 0.1% and 0.5% (w/v) PVP compared to phosphate buffer, p < 0.05)	Onset time of nucleation [1]	Induction time (tind) [2, 5]	Slope of the time–concentration profile (precipitation rate) [2, 6]	Slope of the time–concentration profile (precipitation rate) [2, 7]	Equilibrium solubility [3, 10]	Equilibrium solubility [3, 11]	Equilibrium solubility ([3]; increasing the concentration of PVP to 1% (w/v), p < 0.05)
CCCSc1ccc2nc(NC(=O)OC)[nH]c2c1 [albendazole, Albendazole]	statistically significant difference	significant influence	no significant influence	no statistically significant differences	No statistically significant increase	–	–	–	–	–	–	–	–	statistically significant increase	statistically significant difference	no statistically significant differences	no statistically significant increase	statistically significant increase	–
